Test results published in paper PMC10045663, “Synthesis, In Vitro Biological Evaluation of Antiproliferative and Neuroprotective Effects and In Silico Studies of Novel 16E-Arylidene-5α,6α-epoxyepiandrosterone Derivatives” (Biomedicines, 2023).
Each block holds one molecule with its values, some of them ahead of it.

Experiments:
5AR type 2 = test system: 5AR type 2; set-up: method as in PMID 26377677; conditions: read-out: IC50 against 5AR type 2; cited from earlier work
[1] = test system: MCF-7 cells (estrogen-responsive breast cancer cells); test: MTT cell proliferation assay, MCF-7 cells; assay type: cell-based; conditions: Homo sapiens, MCF7; MTT, 72 h, tumoral cells; read-out: Estimated IC50, MCF-7
Protocol: (§1) LNCaP, PC-3, MCF-7, PNT1A, N27, and NHDF cells were obtained from the American Type Culture Collection (ATCC; Manassas, VA, USA) and were cultured in 75 cm^2 culture flasks at 37 °C in a humidified air incubator with 5% CO2. LNCaP, PC-3, PNT1A, and N27 cells, respectively, were cultured in RPMI 1640 medium (Sigma-Aldrich, Inc. St. Louis, MO, USA) with 10% fetal bovine serum (FBS; Sigma-Aldrich, Inc. St. Louis, MO, USA) and 1% of the antibiotic mixture of 10,000 U/mL penicillin G and […] streptomycin (Sp, Sigma-Aldrich, Inc. St. Louis, MO, USA). MCF-7 cells were cultured in DMEM medium (Sigma-Aldrich, Inc. St. Louis, MO, USA) supplemented with 10% fetal bovine serum (FBS; Sigma-Aldrich, Inc. St. Louis, MO, USA) and 1% antibiotic/antimycotic (10,000 U/mL penicillin G, […] streptomycin, and 25 µg/mL amphotericin B: Ab, Sigma-Aldrich, Inc. St. Louis, MO, USA). Finally, NHDF cells were cultured in RPMI 1640 medium supplemented with 10% FBS, 2 mM L-glutamine, 10 mM HEPES, 1 mM sodium pyruvate, and 1% of the antibiotic/antimycotic Ab, and these cells were used in passages 10th to 14th. For all cell types, the medium was renewed every 2 days until cells nearly reached the confluence state. When cells reach approximately 90–95% confluence, they are gently detached by trypsinization (trypsin-EDTA solution: 0.125 g/L of trypsin and 0.02 g/L of EDTA). Before each experiment, viable cells were counted in a Neubauer chamber by a trypan-blue exclusion assay and adequately diluted in the appropriate complete cell culture medium.
(§2) All tested compounds were dissolved in dimethyl sulfoxide (DMSO; Sigma-Aldrich, Inc. St. Louis, MO, USA) at a concentration of 10 mM and stored at 4 °C. From the mother-solutions, the diluted solutions of the compounds, in different concentrations, were prepared in the respective complete culture medium before each experiment.
(§3) After reaching a confluence state, cells were trypsinized and counted by the trypan-blue exclusion assay and then seeded with an initial density of 2 × 10^4 cells/mL in 96-well culture plates (Nunc, Apogent, Denmark) and left to adhere and grow for 48 h. Subsequently, the medium was removed, and the cells were treated with compound solutions (10 and 50 µM for preliminary studies and 0.01, 0.1, 1, 10, 50, and 100 µM for concentration-response studies) in complete culture medium for 72 h. 5-Fluorouracil (5-FU) was used as a positive control, and untreated cells were used as the negative control. Compounds leading to cell proliferation relative to control clearly below 50%, at 10 µM, or clearly below 25%, at 50 µM, in the screening studies were selected to concentration-response studies in tumoral cell lines. Each experiment was performed in quadruplicate and independently at least two times. The in vitro antiproliferative effects were evaluated by the MTT assay (Sigma-Aldrich, Inc. St. Louis, MO, USA). After the incubation period, the medium was removed, and 100 µL of phosphate buffer saline (PBS, NaCl 137 mM; KCl 2.7 mM; Na2HPO4 10 mM; and KH2PO4 1.8 mM in deionized water with a pH adjusted to 7.4) were used to wash the cells. Then, 100 µL of the MTT solution (5 mg/mL) was prepared in the appropriate serum-free medium and added to each well, followed by incubation for 4 h at 37 °C. Hereafter, the MTT containing medium was removed, and the formazan crystals were dissolved in DMSO. Then, the absorbance was measured at 570 nm using a xMarkTM microplate spectrophotometer from BIO-RAD Laboratories. Cell viability values were expressed as percentages relative to the negative control.

MCF-7 cells [2] = test: Immunocytochemistry assay, Ki67 staining; assay type: cell-based; conditions: 48 h
Protocol: MCF-7 cells were trypsinized and counted by the trypan-blue exclusion assay, and then cells were seeded with an initial density of 3 × 10^4 cells/mL in 24-well culture plates (Nunc, Apogent, Denmark) containing circular coverslips of 10 mm diameter. Following seeding (48 h), cells were treated with 1 and 10 µM concentrations of 5-FU, as positive controls, and steroid 19 for 48 h. Untreated cells were used as a negative control. After this period, photograph shots were acquired at an optical microscope coupled with a digital camera (Supplementary Material, S2). Subsequently, the medium was removed, and cells were fixed with 10% formalin (15 min, room temperature). After fixation, cells were washed three times with PBS, permeabilized, and blocked for non-specific binding sites for 1 h with 0.5% Triton X-100 and 6% BSA at room temperature. Cells were incubated at 4 °C with 30 μL/coverslip of primary antibody, rabbit polyclonal anti-Ki67 (1:50, Abcam Plc.), prepared in 0.3% BSA and 0.1% Triton X-100, overnight. Then, cells were washed three times with PBS and incubated for 1 h, at room temperature, with 30 μL/coverslip of a solution containing the secondary antibody, Alexa Fluor 488 donkey anti-rabbit (1:200, Life Technologies), and the nuclear marker Hoechst-33342 (1:500, Life Technologies) prepared in PBS. Lastly, the coverslips were washed three times with PBS, mounted on a drop of the fluoroshield mounting medium (Abcam, Plc.) on a microscope slide, and left to dry for 24 h. Photomicrographs were taken using an Axio Imager A1 microscope (Carl Zeiss, Göttingen, Germany) with the 40 × objective.

[3] = test system: NHDF cells (normal human dermal fibroblasts); test: MTT cell proliferation assay, NHDF cells; assay type: cell-based; conditions: Homo sapiens, NHDF, 72 h, non-tumoral cells, read-out: Estimated IC50, NHDF
Protocol: as §1, §2, §3

MCF-7 cells [4] = test: PI incorporation (propidium iodide staining); assay type: cell-based; conditions: 48 h
Protocol: After 48 h of being seeded at the same conditions explained in the previous (Section 2.2.4), MCF-7 cells were treated with the steroidal derivatives 19 and 5-FU at 1 and 10 µM and maintained in culture for 48 h. Untreated cells were also used as a negative control. Subsequently, cells were incubated with 20 µL/per well of a propidium iodide solution (PI; 1 mg/mL in PBS; Sigma-Aldrich Co. LLC) for 25 min at 37 °C. Then, the medium was removed, and the cells were fixed with 10% formalin for 15 min at room temperature. Cells were washed three times with PBS and incubated with 30 µL/per coverslip of Hoechst-33342 (1:500) for 10 min. After incubation, cells were washed three times with PBS. Coverslips were mounted on a drop of the fluoroshield mounting medium on a microscope slide, left to dry for 24 h, and then visualized in a Zeiss Axio Imager A1 microscope with the 40× objective.

[5] = test system: LNCaP cells (androgen-dependent prostatic cancer); test: MTT cell proliferation assay, LNCaP cells; assay type: cell-based; conditions: Homo sapiens, LNCaP; MTT, 72 h, tumoral cells; read-out: Estimated IC50, LNCaP
Protocol: as §1, §2, §3

[6] = test system: N27 (rat dopaminergic neuronal cells); test: MTT cell proliferation assay, N27 cells; assay type: cell-based; conditions: Rattus norvegicus, N27, 72 h, non-tumoral cells, read-out: Estimated IC50, N27
Protocol: as §1, §2, §3

[7] = test system: PNT1A (normal prostate cells); test: MTT cell proliferation assay, PNT1A cells; assay type: cell-based; conditions: Homo sapiens, PNT1A, 72 h, non-tumoral cells, read-out: Estimated IC50, PNT1A
Protocol: as §1, §2, §3

MCF-7 cells [8] = test: Nearest neighbor distance analysis with ImageJ; assay type: cell-based; conditions: MCF-7, 1 and 10 µM, 48 h
Text: The nuclear measurements were achieved by converting 16-bit photomicrographs of Hoechst 33342-stained nuclei in different studied conditions into 8-bit images. Then, these imagens were autothresholded to binary photos using the default “Make binary” function of ImageJ (v. 1.49) software (NIH Image, Bethesda, MD, USA). Cell nuclei that are touching were separated and fragments were discarded based on area through “Analyze Particle” function. This function also provides several other information, such as nuclear area (NA), circumference, and form factor [26]. Furthermore, the “Nearest Neighbor Distance” (NND) was determined. This function allows measuring the distance between each cell nucleus and the nearest ones, providing information about cell distribution.

[9] = test system: PC-3 cells (androgen-independent prostatic cancer); test: MTT cell proliferation assay, PC-3 cells; assay type: cell-based; conditions: Homo sapiens, PC-3; MTT, 72 h, tumoral cells; read-out: Estimated IC50, PC-3
Protocol: as §1, §2, §3

[10] = test system: KB (nasopharyngeal epidermoid carcinoma); set-up: method as in PMID 23635011; conditions: read-out: IC50 against KB cells; cited from earlier work
[11] = test system: T47-D cells (breast cancer); set-up: method as in PMID 23635011; conditions: MTT assay, read-out: IC50 against T47-D cells; cited from earlier work

Structure (SMILES): C[C@]12CCC3C(C[C@@H]4O[C@@]45C[C@@H](O)CC[C@]35C)C1CC=C2C(=O)COC(=O)c1ccc(F)cc1 (stereo partly drawn) [21(p-fluoro)benzoyloxy-5α,6α-epoxy-3β-hydroxypregna-16-en-20-one]
IC50 (5AR type 2): 0.179 µM

IC50 [1]: 6.3 µM
IC50 [5]: 9.43 µM
IC50 [9]: 21.2 µM
Structure (SMILES): O=c1[nH]cc(F)c(=O)[nH]1 [Compound 5-FU, 5-Fluorouracil, reference compound]
Ki67-positive cells relative to control (MCF-7 cells [2]; MCF-7, 1 µM): none of the compounds significantly affected
Ki67-positive cells relative to control (MCF-7 cells [2]; MCF-7, 10 µM): statistically significant decrease
IC50 [3]: 6.34 µM
PI-positive cells relative to the negative control (MCF-7 cells [4]; MCF-7, 1 µM): no significant effect
PI-positive cells relative to the negative control (MCF-7 cells [4]; MCF-7, 10 µM): significantly increase
IC50 [6]: 3.19 µM
IC50 [7]: 6.48 µM
cell distribution (nearest neighbor distance, NND) (MCF-7 cells [8]): more random distribution with nuclei more spaced

Structure (SMILES): C[C@]12CC[C@H](O)CC1=CCC1C2CC[C@]2(C)C(=O)/C(=C/c3cccc(Cl)c3)CC12 (some centres unmarked) [reference compound]
IC50 [10]: 0.6 µM
IC50 [11]: 1.7 µM
